Experimental data as given in a flash point compilation (Sun et al. 2020).

Row | flash point [°C] | Structure (SMILES)
1 | 88.00 | O=Cc1ccccc1Cl [2-chlorobenzaldehyde]
2 | 58.00 | ClC=Cc1ccccc1 [2-chloroethenylbenzene]
3 | 149.00 | CCCCCCCCCCCCc1ccccc1S(=O)(=O)O [2-dodecylbenzenesulfonic acid]
4 | 42.00 | C=Cc1ccccn1 [2-ethenylpyridine]
5 | 37.00 | CCOC1CCC=CO1 (stereo not given) [2-ethoxy-3,4-dihydro-2H-pyran]
6 | 132.00 | CCCCC(CC)CNCC(CC)CCCC (stereo not given) [2-ethyl-N-(2-ethylhexyl)hexan-1-amine]
7 | 21.00 | CCC(C=O)CC [2-ethylbutanal]
8 | 54.00 | CCC(CC)COC(C)=O [2-ethylbutyl acetate]
9 | 60.00 | CCCCC(CC)CN (stereo not given) [2-ethylhexan-1-amine]
10 | 52.00 | CCCCC(C=O)CC (stereo not given) [2-ethylhexanal]
11 | 127.00 | CCCC(O)C(CC)CO (stereo not given) [2-ethylhexane-1,3-diol]
12 | 127.00 | CCCCC(CC)C(=O)O (stereo not given) [2-ethylhexanoic acid]
13 | 171.00 | CCCCC(CC)COC(=O)COc1ccc(Cl)cc1Cl (stereo not given) [2-ethylhexyl 2-(2,4-dichlorophenoxy)acetate]
14 | -12.00 | CCC1CO1 (stereo not given) [2-ethyloxirane]
15 | 60.00 | Nc1ccccc1F [2-fluoroaniline]
16 | 91.00 | CCCCCCOCCO [2-hexoxyethanol]
17 | 102.00 | CC(=O)OCCO [2-hydroxyethyl acetate]
18 | 188.00 | NC(=O)OCCO [2-hydroxyethyl carbamate]
19 | 260.00 | CCCCCCCCCCCCCCCCCC(=O)OCCO [2-hydroxyethyl octadecanoate]
20 | 100.00 | O=C(O)CC(O)(CC(=O)O)C(=O)O [2-hydroxypropane-1,2,3-tricarboxylic acid]
21 | 113.00 | CC(O)C(=O)O (stereo not given) [2-hydroxypropanoic acid]
22 | 113.00 | C/C=C/c1ccc(O)c(OC)c1 [2-methoxy-4-[(E)-prop-1-enyl]phenol]

Row | flash point [°C] | Structure (SMILES)
23 | 74.00 | COc1ccccc1O [2-methoxyphenol]
24 | 25.00 | COC(C)COC(C)=O (stereo not given) [2-methoxypropyl acetate]
25 | 29.00 | CC(C)CNCC(C)C [2-methyl-N-(2-methylpropyl)propan-1-amine]
26 | 84.00 | Cc1ccccc1C#N [2-methylbenzonitrile]
27 | 13.00 | C=CC(C)(C)O [2-methylbut-3-en-2-ol]
28 | 50.00 | CCC(C)CO (stereo not given) [2-methylbutan-1-ol]
29 | 26.00 | CCC(C)(C)OC(C)=O [2-methylbutan-2-yl acetate]
30 | 48.00 | CC1CCCCC1=O (stereo not given) [2-methylcyclohexan-1-one]
31 | -30.00 | Cc1ccco1 [2-methylfuran]
32 | -26.00 | C=C(C)CCC [2-methylpent-1-ene]
33 | 54.00 | CCCC(C)CO (stereo not given) [2-methylpentan-1-ol]
34 | 20.00 | CCCC(C)C=O (stereo not given) [2-methylpentanal]
35 | 93.00 | CC(O)CC(C)(C)O (stereo not given) [2-methylpentane-2,4-diol]
36 | -76.00 | C=C(C)C [2-methylprop-1-ene]
37 | 77.00 | C=C(C)C(=O)O [2-methylprop-2-enoic acid]
38 | -9.00 | CC(C)CN [2-methylpropan-1-amine]
39 | -83.00 | CC(C)C [2-methylpropane]
40 | 59.00 | CC(C)C(=O)OC(=O)C(C)C [2-methylpropanoyl 2-methylpropanoate]
41 | 37.00 | CC(C)COC(=O)C(C)C [2-methylpropyl 2-methylpropanoate]
42 | 17.00 | CC(=O)OCC(C)C [2-methylpropyl acetate]
43 | 36.00 | Cc1ccccn1 [2-methylpyridine]
44 | 79.00 | Cc1ccc2ccccc2n1 [2-methylquinoline]

Row | flash point [°C] | Structure (SMILES)
45 | 78.00 | CCCCCCCCC1CO1 (stereo not given) [2-octyloxirane]
46 | 96.00 | OCCc1ccccc1 [2-phenylethanol]
47 | 129.00 | OCCOCc1ccccc1 [2-phenylmethoxyethanol]
48 | 93.00 | NCCN1CCNCC1 [2-piperazin-1-ylethanamine]
49 | 122.00 | CC(C)c1ccc2ccccc2c1 [2-propan-2-ylnaphthalene]
50 | 113.00 | O=C(O)CS [2-sulfanylacetic acid]
51 | 170.00 | c1ccc2n[nH]nc2c1 [2H-benzotriazole]
52 | -17.00 | C=CC(F)(F)C(F)(F)C(F)(F)C(F)(F)F [3,3,4,4,5,5,6,6,6-nonafluorohex-1-ene]
53 | 74.00 | CC1CC(O)CC(C)(C)C1 (stereo not given) [3,3,5-trimethylcyclohexan-1-ol]
54 | 48.00 | O=CC1CCC=CO1 (stereo not given) [3,4-dihydro-2H-pyran-2-carbaldehyde]
55 | -18.00 | C1=COCCC1 [3,4-dihydro-2H-pyran]
56 | 93.00 | CC(CCO)CC(C)(C)C (stereo not given) [3,5,5-trimethylhexan-1-ol]
57 | 93.00 | Cc1cc(C)cc(N)c1 [3,5-dimethylaniline]
58 | 78.00 | C=CC(C)(O)CCC=C(C)C (stereo not given) [3,7-dimethylocta-1,6-dien-3-ol]
59 | 102.00 | CC(C)=CCCC(C)=CC=O [3,7-dimethylocta-2,6-dienal]
60 | 101.00 | CN1CCCC1c1cccnc1 (stereo not given) [3-(1-methylpyrrolidin-2-yl)pyridine]
61 | 71.00 | CC1CCCCN1CCCOC(=O)c1ccc(Cl)c(Cl)c1 (stereo not given) [3-(2-methylpiperidin-1-yl)propyl 3,4-dichlorobenzoate]
62 | 178.00 | CCCCCCCCC/C=C/CC1CC(=O)OC1=O (stereo not given) [3-[(E)-dodec-2-enyl]oxolane-2,5-dione]
63 | 69.00 | CC(=O)C1C(=O)C=C(C)OC1=O (stereo not given) [3-acetyl-6-methylpyran-2,4-dione]
64 | 110.00 | Oc1cccc(Br)c1 [3-bromophenol]
65 | 73.00 | OCCCCl [3-chloropropan-1-ol]
66 | 77.00 | COC(C)CCOC(C)=O (stereo not given) [3-methoxybutyl acetate]

Row | Structure (SMILES) | flash point [°C]
67 | O=CCCl [2-chloroacetaldehyde] | 88.00
68 | NC(=O)CCl [2-chloroacetamide] | 170.00
69 | N#CCCl [2-chloroacetonitrile] | 48.00
70 | O=C(Cl)CCl [2-chloroacetyl chloride] | 100.00
71 | C=CC(=C)Cl [2-chlorobuta-1,3-diene] | -20.00
72 | OCCCl [2-chloroethanol] | 60.00
73 | Clc1ccc2ccccc2c1 [2-chloronaphthalene] | 125.00
74 | Oc1ccccc1Cl [2-chlorophenol] | 64.00
75 | CC(Cl)CO (stereo not given) [2-chloropropan-1-ol] | 52.00
76 | CCOCCOC(C)=O [2-ethoxyethyl acetate] | 57.00
77 | CCc1cccc(C)c1N [2-ethyl-6-methylaniline] | 102.00
78 | CCCCC(CC)CO (stereo not given) [2-ethylhexan-1-ol] | 81.00
79 | CCCCC(CC)COP(=O)(Oc1ccccc1)Oc1ccccc1 (stereo not given) [2-ethylhexyl diphenyl phosphate] | 224.00
80 | C=CC(=O)OCC(CC)CCCC (stereo not given) [2-ethylhexyl prop-2-enoate] | 82.00
81 | CC(C)(O)C#N [2-hydroxy-2-methylpropanenitrile] | 74.00
82 | CC(O)C#N (stereo not given) [2-hydroxypropanenitrile] | 77.00
83 | COCCOC(C)=O [2-methoxyethyl acetate] | 44.00
84 | Cc1ccccc1N [2-methylaniline] | 85.00
85 | C=CC(=C)C [2-methylbuta-1,3-diene] | -54.00
86 | CC1CO1 (stereo not given) [2-methyloxirane] | -37.00

Row | Structure (SMILES) | flash point [°C]
87 | C=C(C)C=O [2-methylprop-2-enal] | 2.00
88 | CC(C)(C)O [2-methylpropan-2-ol] | 11.00
89 | CC(C)C#N [2-methylpropanenitrile] | 8.00
90 | C=CC(=O)OCC(C)C [2-methylpropyl prop-2-enoate] | 30.00
91 | Nc1ccccc1[N+](=O)[O-] [2-nitroaniline] | 168.00
92 | OCCOc1ccccc1 [2-phenoxyethanol] | 121.00
93 | N#CCc1ccccc1 [2-phenylacetonitrile] | 102.00
94 | c1ccc(C2CO2)cc1 (stereo not given) [2-phenyloxirane] | 79.00
95 | COc1ccc(O)c(C(C)(C)C)c1.COc1ccc(O)cc1C(C)(C)C [2-tert-butyl-4-methoxyphenol;3-tert-butyl-4-methoxyphenol] | 113.00
96 | COc1ccc(O)c(C(C)(C)C)c1 [2-tert-butyl-4-methoxyphenol] | 156.00
97 | CC(C)(C)OOC(C)(C)C [2-tert-butylperoxy-2-methylpropane] | 18.00
98 | CC(C)(C)c1ccccc1O [2-tert-butylphenol] | 110.00
99 | Cc1ccc(N)cc1C [3,4-dimethylaniline] | 98.00
100 | CN1CSC(=S)N(C)C1 [3,5-dimethyl-1,3,5-thiadiazinane-2-thione] | 93.00
101 | O=C(O)CCP(CCC(=O)O)CCC(=O)O [3-[bis(2-carboxyethyl)phosphanyl]propanoic acid] | 202.00
102 | OCCCBr [3-bromopropan-1-ol] | 94.00
103 | C=C(C)CCl [3-chloro-2-methylprop-1-ene] | -13.00
104 | OCC(O)CCl (stereo not given) [3-chloropropane-1,2-diol] | 59.00
105 | CCOc1cc(C=O)ccc1O [3-ethoxy-4-hydroxybenzaldehyde] | 145.00
